Measured values reported in patent EP1059033A1, “INDUSTRIAL ANTIBACTERIAL/ANTIFUNGAL AGENTS, ALGICIDES AND ANTI-BIOLOGICAL ADHESION AGENTS CONTAINING BENZYLAMINES” (Nissan Chemical Industries, Ltd., priority 1998, dated 1999).
Values after ≈ are worked out from the molar mass of the structure shown. Where two headings read alike, the source gives them in different places.

Legend:
[1] = tested on: Bacillus subtilis; assay: Agar dilution MIC (Example 3); assay type: cell-based; conditions: agar plate, 37±1 °C, 18 to 20 hours
Method: (§1) Series of diluted samples (20000, 10000, 5000, 2500, 1250, 625, 313, 156, 78, 39 mg/l) of the compounds of the invention were prepared using dimethylsulfoxide. A sensitive culture medium-N (Nissui Seiyaku Co.) was used for bacteria and a potato dextrose agar culture medium (Nissui Seiyaku Co.) was used for fungi. 0.5 ml of each sample was added to and mixed with 9.5 ml of the culture medium, poured into a Petri dish and solidified to obtain a plate. As a result, the concentration of the compounds of the invention in the agar culture medium were 1000, 500, 250, 125, 62.5, 31.3, 15.6, 7.8, 3.9, 2.0 mg/l. The bacterium inoculated were cultured in a bouillon for the assay of sensitivity (Nissui Seiyaku Co.) at 37 °C for 20 hours, and the fungi were cultured in the potato dextrose agar culture medium (Nissui Seiyaku Co.) for 10 days and then a 10^6 CFU/ml suspension was prepared from each of them. A test bacteria or fungi suspension was streaked on an agar plate containing the compound of the present invention with platinum wire loop, and the agar plate was cultured at 37±1 °C for 18 to 20 hours for bacteria or at 27 °C for 7 days for fungi. A concentration at which no growth was seen was taken as minimum inhibitory concentration (MIC). Symbols in the tables mean the followings; • A: Bacillus subtilis, • B: Trichophyton mentagrophytes, • C: Staphylococcus aureus, • D: Aspergillus niger, • E: Penicillium funiculosum, • F: Candida albicans, • G: Micrococcus luteus, • H: Corynebacterium aquaticum, • I: Chaetomium globosum, • J: Fusarium moniliforme, • K: Saccharomyces cerevisiae, • L: Rhodotorula rubra, • M: Cladosporium cladosporioides, • N: Alternaria alternata.

[2] = tested on: Trichophyton mentagrophytes; assay: Agar dilution MIC (Example 3); assay type: cell-based; conditions: 168 h, agar plate, 27 °C, 7 days
Method: as §1

[3] = tested on: Staphylococcus aureus; assay: Agar dilution MIC (Example 3); assay type: cell-based; conditions: agar plate, 37±1 °C, 18 to 20 hours
Method: as §1

[4] = tested on: freshwater green alga (Selenastrum capricornutum); assay: Inhibition of propagation of freshwater green alga (Example 4); assay type: cell-based; conditions: for inhibition at 0.05 ppm: read-out: Propagation inhibiting rate(%) 50ppb; for inhibition at 0.5 ppm: read-out: Propagation inhibiting rate(%) 500ppb
Method: A predetermined amount of each of the compounds of the invention was dissolved in a culture medium containing 10^5 /ml of a freshwater green alga (Selenastrum capricornutum) at a logarithmic growth phase to prepare samples having a concentration of the compound of the invention in the medium of 500 ppb and 50ppb respectively. The samples were stationary cultured at 23±1 °C for […] under continuous illumination.
After 72 hours, the number of cells was measured using a hemacytometer to obtain propagation rate. The propagation inhibiting rate was calculated from comparison with the non-treated lot.

[5] = tested on: Bacillus subtilis; assay: Agar dilution MIC (Example 2); assay type: cell-based; conditions: agar plate, 37±1 °C, 18 to 20 hours
Method: (§2) Series of diluted samples (20000, 10000, 5000, 2500, 2000, 1250, 625, 313, 156, 78, 39, 20, 10, 5, 2.5, 1.25 mg/l) of the compounds of the invention were prepared using dimethylsulfoxide. A sensitive culture medium-N (Nissui Seiyaku Co.) was used for bacteria and a potato dextrose agar culture medium (Nissui Seiyaku Co.) was used for fungi. 0.5 ml of each sample was added to and mixed with 9.5 ml of the culture medium, poured into a Petri dish and solidified to obtain a plate. As a result, the concentration of the compounds of the invention in the agar culture medium were 1000, 500, 250, 125, 100, 62.5, 31.3, 15.6, 7.8, 3.9, 2.0, 1.0, 0.5, 0.25, 0.125, 0.062 mg/l. The bacterium inoculated were cultured in a bouillon for the assay of sensitivity (Nissui Seiyaku Co.) at 37 °C for 20 hours, and the fungi were cultured in the potato dextrose agar culture medium (Nissui Seiyaku Co.) for 10 days and then a 10^6 CFU/ml suspension was prepared from each of them. A test bacteria or fungi suspension was streaked on an agar plate containing the compound of the present invention with platinum wire loop, and the agar plate was cultured at 37±1 °C for 18 to 20 hours for bacteria or at 27 °C for 7 days for fungi. A concentration at which no growth was seen was taken as minimum inhibitory concentration [MIC(mg/l)]. Symbols in the table mean the followings; • A: Bacillus subtilis, • B: Trichophyton mentagrophytes, • C: Rhodotorula mucilaginosa.

[6] = tested on: Trichophyton mentagrophytes; assay: Agar dilution MIC (Example 2); assay type: cell-based; conditions: 168 h, agar plate, 27 °C, 7 days
Method: as §2

[7] = tested on: Trichophyton mentagrophytes; assay type: cell-based; conditions: 72 h, 100 ppm
Method: 31.3 ml of Trichophyton mentagrophytes to be tested was added to 125 ml of a potato dextrose agar culture medium (Nissui Seiyaku Co.). The medium was stirred not to foam the solutions, poured into plates uniformly and solidified.
Thereafter, predetermined amounts of the compounds of the invention were weighted and diluted with acetone to predetermined concentrations.
Paper disks were impregnated with samples containing predetermined amounts of the compounds of the invention, laid on a filter, dried with air and placed on a plate containing test microbe at equal intervals.
Trichophyton mentagrophytes was cultured at 28 °C for 3 days in a thermostatic chamber and the diameter of each inhibiting zone was measured to evaluate the activity of each compound. Symbols in the table mean the followings; • A: Trichophyton mentagrophytes, • ++: strongly inhibiting zone (equal to or more than 21 mm) is observed, • +: inhibiting zone (10 to 20 mm) is observed, • -: no inhibiting zone is observed.

[8] = tested on: seawater diatom [Nitzschia closterium]; assay: Inhibition of propagation of seawater diatom (Example 5); assay type: cell-based; conditions: Cylindrotheca closterium, 72 h, read-out: Propagation inhibiting rate(%) 500ppb
Method: A predetermined amount of each of the compounds of the invention was dissolved in culture media containing 10^5 /ml of a seawater diatom [Nitzschia closterium] at a logarithmic growth phase to prepare samples having a concentration of the compound in the medium of 500 ppb. The samples were stationary cultured at 22±1 °C for […] under continuous illumination.
After 72 hours, cells were collected by centrifugation and disrupted by addition of methanol to extract chlorophyll, and the amount of chlorophyll was measured from absorbance using a spectrophotometer to obtain propagation rate. The propagation inhibiting rate was calculated from comparison with the non-treated lot.

[9] = tested on: Rhodotorula rubra; assay: Agar dilution MIC (Example 3); assay type: cell-based; conditions: 168 h, agar plate, 27 °C, 7 days
Method: as §1

[10] = tested on: Corynebacterium aquaticum; assay: Agar dilution MIC (Example 3); assay type: cell-based; conditions: Leifsonia aquatica, agar plate, 37±1 °C, 18 to 20 hours
Method: as §1

[11] = tested on: Chaetomium globosum; assay: Agar dilution MIC (Example 3); assay type: cell-based; conditions: 168 h, agar plate, 27 °C, 7 days
Method: as §1

[12] = tested on: Candida albicans; assay: Agar dilution MIC (Example 3); assay type: cell-based; conditions: 168 h, agar plate, 27 °C, 7 days
Method: as §1

[13] = tested on: Penicillium funiculosum; assay: Agar dilution MIC (Example 3); assay type: cell-based; conditions: Talaromyces funiculosus, 168 h, agar plate, 27 °C, 7 days
Method: as §1

[14] = tested on: Alternaria alternata; assay: Agar dilution MIC (Example 3); assay type: cell-based; conditions: 168 h, agar plate, 27 °C, 7 days
Method: as §1

[15] = tested on: Cladosporium cladosporioides; assay: Agar dilution MIC (Example 3); assay type: cell-based; conditions: 168 h, agar plate, 27 °C, 7 days
Method: as §1

[16] = tested on: Fusarium moniliforme; assay: Agar dilution MIC (Example 3); assay type: cell-based; conditions: Fusarium verticillioides, 168 h, agar plate, 27 °C, 7 days
Method: as §1

[17] = tested on: Aspergillus niger; assay: Agar dilution MIC (Example 3); assay type: cell-based; conditions: 168 h, agar plate, 27 °C, 7 days
Method: as §1

[18] = tested on: Saccharomyces cerevisiae; assay: Agar dilution MIC (Example 3); assay type: cell-based; conditions: 168 h, agar plate, 27 °C, 7 days
Method: as §1

[19] = tested on: blue mussel; assay: Antifouling (adhesion repellent) activity against blue mussel (Example 7); assay type: in vivo, Mytilus edulis; set-up: key: ++: not adhered in the zone and strong repellent effect is observed; +: adhesion in zone is observed but most of them adhered out of zone and repellent effect is observed; -: adhered in and out of zone alike and repellent effect is not observed; conditions: seawater, dark, 3 hours
Method: The compound of the invention was completely dissolved in 1 ml of acetone and the resulting solution was uniformly applied to a 4 cm-diameter zone drawn on a test plate. A zone coated with acetone alone as blank and zones coated with 1.0 mg and 0.5 mg of copper sulfate as a comparison chemical were also prepared. After drying, four blue mussel having a shell length of about 2 to 2.5 cm were adhered around each zone using a rubber piece as a spacer. The thus prepared test plate was immersed in a water tank to which seawater ran and left to stand in the dark for 3 hours.
The adhesion controlling effect (adhesion repellent activity) was obtained from comparison with copper sulfate used as a comparison chemical.
The evaluation of adhesion repellent activity was based on "Evaluation method of adhesion repellent substance to marine adhesion organisms using Mytilus edulis" written by Kazuo Ina and Hideo Etoh (Chemistry and Biology, vol.28 (No.2), pp.132-138, 1990).
Symbols in the table mean the followings; • ++: not adhered in the zone and strong repellent effect is observed, • +: adhesion in zone is observed but most of them adhered out of zone and repellent effect is observed, • -: adhered in and out of zone alike and repellent effect is not observed.

[20] = tested on: freshwater green alga (Scenedesmus pannonicus); assay: Inhibition of propagation of freshwater algae (Example 6); assay type: cell-based; conditions: Desmodesmus pannonicus, 500ppb
Method: A predetermined amount each of the compounds of the invention was dissolved in a culture medium containing 10^5 /ml of a freshwater alga at a logarithmic growth phase to prepare samples having a concentration of the compound of the invention in the medium of 500 ppb and 50 ppb respectively. A shaking culture at 100 rpm was performed for […] under continuous illumination at 20±2 °C for freshwater diatom and at 23±2 °C for other algae.
After 72 hours and 168 hours, the […] of cells was measured using a hemacytometer to obtain propagation rate. The propagation inhibiting rate was calculated from comparison with the non-treated lot. Symbols in the tables mean the followings; • A: freshwater green alga (Chlorella pyrenoidosa), • B: freshwater blue-green alga (Microcystis aeruginosa), • C: freshwater diatom (Diatoma elongatum), • D: freshwater green alga (Scenedesmus pannonicus).

[21] = tested on: Micrococcus luteus; assay: Agar dilution MIC (Example 3); assay type: cell-based; conditions: agar plate, 37±1 °C, 18 to 20 hours
Method: as §1

[22] = tested on: Rhodotorula mucilaginosa; assay: Agar dilution MIC (Example 2); assay type: cell-based; conditions: 168 h, agar plate, 27 °C, 7 days
Method: as §2

[23] = 500ppb, after 72 hours, cell number vs non-treated lot

SMILES | MIC [1] [µg/mL] | MIC [2] [µg/mL] | MIC [5] [µg/mL] | MIC [6] [µg/mL] | Judgment (Target bacteria: A) [7] | inhibition at 0.5 ppm [8] [%] | MIC [9] [µg/mL] | MIC [10] [µg/mL] | MIC [11] [µg/mL] | MIC [12] [µg/mL] | MIC [13] [µg/mL] | MIC [14] [µg/mL] | MIC [15] [µg/mL] | MIC [17] [µg/mL] | MIC [18] [µg/mL] | inhibition at 0.5 ppm [4, 23] [%] | also measured
CN(Cc1ccc(C(C)(C)C)cc1)Cc1ccc(Cl)c(Cl)c1 [Compound 3] | 125 (≈ 372 µM) | < 2 | 125 (≈ 372 µM) | < 2 | + (inhibiting zone (10 to 20 mm) is observed) |  |  |  |  |  |  |  |  |  |  |  | MIC [3]: 125 µg/mL (≈ 372 µM); inhibition at 0.05 ppm ([4]; 72 h): 90%; inhibition at 0.5 ppm ([4]; 72 h): 94%
Cc1cccc(CN(C)Cc2ccc(C(C)(C)C)cc2)c1C [Compound 4] |  | < 2 |  | < 2 | ++ (strongly inhibiting zone (equal to or more than 21 mm) is observed) | 70 | 63 (≈ 213 µM) | 31.3 (≈ 106 µM) | 31.3 (≈ 106 µM) | 62.5 (≈ 212 µM) | 15.6 (≈ 52.8 µM) | 31.3 (≈ 106 µM) | 31.3 (≈ 106 µM) | 15.6 (≈ 52.8 µM) | 63 (≈ 213 µM) | 95 | MIC [16]: 31.3 µg/mL (≈ 106 µM); inhibition at 0.05 ppm ([4]; 50ppb, after 72 hours, cell number vs non-treated lot): 64%
CN(Cc1ccc(C(C)(C)C)cc1)C1CCc2ccccc21 (stereo not shown) [Compound 7] |  | < 2 |  | 1 (≈ 3.41 µM) | ++ (strongly inhibiting zone (equal to or more than 21 mm) is observed) | 91 |  |  |  |  |  |  |  |  |  | 62 | Judgment (adhesion repellent activity against blue mussel) ([19]; Amount of chemical 2.0 mg on 4 cm-diameter zone): ++; inhibition at 0.5 ppm ([20]; 72hr, read-out: Propagation inhibiting rate (%) 500ppb 72hr): 92%; inhibition at 0.5 ppm ([20]; 168hr, read-out: Propagation inhibiting rate (%) 500ppb 168hr): 99%
CC(C)(C)c1ccc(CNCc2cccc(Cl)c2Cl)cc1 [Compound 16] | 7.8 (≈ 24.2 µM) | 7.8 (≈ 24.2 µM) | 7.8 (≈ 24.2 µM) | 7.8 (≈ 24.2 µM) |  | 80 |  |  |  | 62.5 (≈ 194 µM) | 62.5 (≈ 194 µM) |  |  | 125 (≈ 388 µM) |  | 90 | 
Cc1cccc(CNCc2ccc(C(C)(C)C)cc2)c1C [Compound 27] |  |  | 31.3 (≈ 111 µM) | 7.8 (≈ 27.7 µM) |  | 90 | 125 (≈ 444 µM) | 7.8 (≈ 27.7 µM) | 63 (≈ 224 µM) |  |  | 125 (≈ 444 µM) | 125 (≈ 444 µM) |  | 63 (≈ 224 µM) | 89 | MIC [21]: 15.6 µg/mL (≈ 55.4 µM); MIC [22]: 15.6 µg/mL (≈ 55.4 µM)
O=S(=O)([O-])[O-].[Cu+2] [Copper sulfate] |  |  |  |  |  |  |  |  |  |  |  |  |  |  |  |  | Judgment (adhesion repellent activity against blue mussel) ([19]; Amount of chemical 0.5 mg on 4 cm-diameter zone): -; Judgment (adhesion repellent activity against blue mussel) ([19]; Amount of chemical 1.0 mg on 4 cm-diameter zone): +
